Values of other authors as cited in US10751019B2, “Determining a brain condition using early time frame PET image analysis” (ADM DIAGNOSTICS, LLC, priority 2015, dated 2020).

Details: PET tracer in brain, time after tracer injection; varies with tracer, region of accumulation and target load

SMILES	time to reach equilibrium
[11CH3]Nc1ccc(-c2nc3ccc(O)cc3s2)cc1 [11C-PiB]	about 45 minutes
CNc1ccc(/C=C/c2ccc(OCCOCCOCCF)nc2)cc1 [florbetapir]	40 to 45 min
CNc1ccc(-c2nc3ccc(O)cc3s2)cc1F [flutemetamol]	about 80 minutes
